The source of these data is patent US20060030585A1, “Tricyclic delta-opioid modulators” (priority 2004, published 2006).

One may read the pKi as the negative decadic logarithm of the Ki, by convention in mol/L.

One assay has as its target delta opioid receptor (Rattus norvegicus, UniProt P33533). The assay can be described thus: Rat brain delta opioid receptor binding assay ([3H]DPDPE). Conditions: Rat delta opioid receptor binding constant, rat forebrain membranes, ~4 nM [3H]DPDPE. As to the method:
Rat Brain Delta Opioid Receptor Binding Assay
Procedure: Male, Sprague Dawley rats (150-250 g, VAF, Charles River, Kingston, N.Y.) were killed by CO2, and their brains removed and placed immediately in ice cold Tris HCl buffer (50 mM, pH 7.4). The forebrains were separated from the remainder of the brain by a coronal transection, beginning dorsally at the colliculi and passing ventrally through the midbrain-pontine junction. After dissection, the forebrains were homogenized in Tris buffer in a Teflon®-glass homogenizer. The homogenate was diluted to a concentration of 1 g of forebrain tissue per 80 mL Tris and centrifuged at 39,000×g for 10 min. The pellet was resuspended in the same volume of Tris buffer containing 5 mM MgCl2 with several brief pulses from a Polytron homogenizer. This particulate preparation was used for the delta opioid binding assays. Following incubation with the delta selective peptide ligand ˜4 nM [^3H]DPDPE at 25° C. for 2.5 h in a 96-well plate with total volume of 1 mL, the plate contents were filtered through Wallac filtermat B sheets on a Tomtec 96-well harvester. The filters were rinsed three times with 2 mL of 10 mM HEPES (pH 7.4), and dried in a 650 W microwave oven for 1.75 min twice. To each sample area 2×50 μL of Betaplate Scint scintillation fluid (LKB) was added and the radioactivity quantified on a LKB (Wallac) 1205 BetaPlate liquid scintillation counter.
Analysis: The data from the scintillation counter were used to calculate either the % inhibition compared to control binding (when only a single concentration of test compound was evaluated) or a Ki value (when a range of concentrations was tested). Percent inhibition was calculated as: [(total dpm-test compound dpm)/(total dpm-nonspecific dpm)]*100. Kd and Ki values were calculated using GraphPad PRISM data analysis program.

For a further assay, the target named is mu opioid receptor (Rattus norvegicus, UniProt P33535). The assay is described as follows: Rat brain mu opioid receptor binding assay ([3H]DAMGO). Conditions: Rat mu opioid receptor binding constant, rat forebrain membranes, ~0.8 nM [3H]DAMGO. How it is done: Rat Brain Mu Opioid Receptor Binding Assay
Chain of mu opioid receptor (P33535 whole entry): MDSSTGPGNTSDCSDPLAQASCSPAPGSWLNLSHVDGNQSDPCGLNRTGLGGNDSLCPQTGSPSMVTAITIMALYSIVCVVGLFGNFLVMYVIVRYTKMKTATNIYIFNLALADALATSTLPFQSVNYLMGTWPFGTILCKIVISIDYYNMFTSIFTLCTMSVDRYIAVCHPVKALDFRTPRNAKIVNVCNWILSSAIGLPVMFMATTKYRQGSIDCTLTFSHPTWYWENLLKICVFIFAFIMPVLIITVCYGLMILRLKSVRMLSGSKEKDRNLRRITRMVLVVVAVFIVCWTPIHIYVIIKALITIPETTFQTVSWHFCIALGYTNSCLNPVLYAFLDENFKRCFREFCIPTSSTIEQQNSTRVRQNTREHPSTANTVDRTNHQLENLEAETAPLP
Procedure: Male, Sprague Dawley rats (150-250 g, VAF, Charles River, Kingston, N.Y.) were killed by CO2, and their brains removed and placed immediately in ice cold Tris HCl buffer (50 mM, pH 7.4). The forebrains were separated from the remainder of the brain by a coronal transection, beginning dorsally at the colliculi and passing ventrally through the midbrain-pontine junction. After dissection, the forebrains were homogenized in Tris buffer in a Teflon®-glass homogenizer. The homogenate was diluted to a concentration of 1 g of forebrain tissue per 80 mL Tris and centrifuged at 39,000×g for 10 min. The pellet was resuspended in the same volume of Tris buffer containing 5 mM MgCl2 with several brief pulses from a Polytron homogenizer. This particulate preparation was used for the delta opioid binding assays.
Analysis: The data from the scintillation counter were used to calculate either the % inhibition compared to control binding (when only a single concentration of test compound was evaluated) or a Ki value (when a range of concentrations tested). Percent inhibition was calculated as: [(total dpm-test compound dpm)/(total dpm-nonspecific dpm)]*100. Kd and Ki values were calculated using GraphPad PRISM data analysis program.

Structures are written as SMILES. pKi: −log10 of the molar value. Where two headings read alike, the source gives them in different places.

Chain of delta opioid receptor (P33533 whole entry): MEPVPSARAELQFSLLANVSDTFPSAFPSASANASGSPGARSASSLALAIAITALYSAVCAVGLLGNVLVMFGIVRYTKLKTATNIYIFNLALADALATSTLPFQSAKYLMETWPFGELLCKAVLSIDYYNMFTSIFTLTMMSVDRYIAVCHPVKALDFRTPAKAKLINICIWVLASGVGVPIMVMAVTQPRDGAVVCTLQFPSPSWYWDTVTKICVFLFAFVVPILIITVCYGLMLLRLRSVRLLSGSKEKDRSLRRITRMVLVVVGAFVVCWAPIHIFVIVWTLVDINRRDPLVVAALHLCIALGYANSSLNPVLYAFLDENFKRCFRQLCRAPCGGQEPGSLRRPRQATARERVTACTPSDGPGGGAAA

On to `CC(C)CNC(=N)c1ccc2c(c1)Oc1ccccc1C2=C1CC2CCC(C1)N2` [Cpd 49], for which the figures for the pKi at delta opioid receptor (DOR Ki) and at mu opioid receptor (MOR Ki) were 5.88 and 5.40, respectively.

As to `Cc1nc(-c2ccc3c(c2)Oc2ccccc2C3=C2CC3CCC(C2)N3)no1` [Cpd 36, 3-[3-(5-Methyl-[1,2,4]oxadiazol-3-yl)-xanthen-9-ylidene]-8-aza-bicyclo[3.2.1]octane], the results for the pKi on delta opioid receptor (DOR Ki) and on mu opioid receptor (MOR Ki) were 6.43 and 5.45, respectively.

As for `COc1cccc2c1Oc1cc(-c3noc(=S)[nH]3)ccc1C2=C1CC2CCC(C1)N2` [Cpd 133, 3-[9-(8-Aza-bicyclo[3.2.1]oct-3-ylidene)-5-methoxy-9H-xanthen-3-yl]-4H-[1,2,4]oxadiazole-5-thione], the pKi was 8.63 on delta opioid receptor (DOR Ki) and 6.43 on mu opioid receptor (MOR Ki).

With `c1ccc2c(c1)Oc1cc(C3=NCCN3)ccc1C2=C1CC2CCC(C1)N2` [Cpd 33], the pKi on delta opioid receptor (DOR Ki) was 6.65; at mu opioid receptor (MOR Ki), 6.50.

Take `N#Cc1ccc2c(c1)Oc1ccccc1C2=C1CC2CCC(C1)N2` [Cpd 77]: the pKi at delta opioid receptor (read-out: DOR Ki) was 5.57; at mu opioid receptor (read-out: MOR Ki), 5.61.

For `CN(CCc1ccccc1)C(=O)c1ccc2c(c1)Oc1ccccc1C2=C1CC2CCC(C1)N2` [Cpd 17], the pKi at delta opioid receptor (DOR Ki) and on mu opioid receptor (MOR Ki) was 7.43 in each case.

For `O=C(NCCO)c1ccc2c(c1)Oc1ccccc1C2=C1CC2CCC(C1)N2` [Cpd 123], the pKi on delta opioid receptor (read-out: DOR Ki) is 6.97; at mu opioid receptor (read-out: MOR Ki), 5.99.

As for `N#Cc1ccc2c(c1)Sc1ccccc1C2=C1CC2CCC(C1)N2` [Cpd 85, 9-(8-Aza-bicyclo[3.2.1]oct-3-ylidene)-9H-thioxanthene-3-carbonitrile], the pKi on delta opioid receptor (DOR Ki) was 6.20; on mu opioid receptor (MOR Ki), 5.64.

Consider `NC(=O)c1ccccc1-c1ccc2c(c1)Oc1ccccc1C2=C1CC2CCC(C1)N2` [Cpd 18], for which the negative logarithm of the Ki (pKi) on delta opioid receptor (DOR Ki) is 7.42; on mu opioid receptor (MOR Ki), 5.81.

Consider `OCc1cccc(-c2ccc3c(c2)Oc2ccccc2C3=C2CC3CCC(C2)N3)c1` [Cpd 23], for which the pKi was 7.12 at delta opioid receptor (DOR Ki) and 5.46 at mu opioid receptor (MOR Ki).

Regarding `CN(C(=O)c1ccc2c(c1)Oc1ccccc1C2=C1CC2CCC(C1)N2)c1ccccc1` [Cpd 14], the pKi at delta opioid receptor (DOR Ki) was 7.57; at mu opioid receptor (MOR Ki), 5.94.

As for `CC(=O)Nc1ccccc1-c1ccc2c(c1)Sc1ccccc1C2=C1CC2CCC(C1)N2Cc1ncc[nH]1` [Cpd 119], the pKi was 6.85 on delta opioid receptor (read-out: DOR Ki) and 6.46 at mu opioid receptor (read-out: MOR Ki).

Consider `CCN(CC)C(=N)c1ccc2c(c1)Oc1ccccc1C2=C1CC2CCC(C1)N2` [Cpd 9, 9-(8-Aza-bicyclo[3.2.1]oct-3-ylidene)-N,N-diethyl-9H-xanthene-3-carboxamidine], for which the pKi at delta opioid receptor (DOR Ki) was 7.85; on mu opioid receptor (MOR Ki), 5.45.

As to `Cn1nnnc1-c1ccc2c(c1)Oc1ccccc1C2=C1CC2CCC(C1)N2` [Cpd 21, 3-[3-(1-Methyl-1 H-tetrazol-5-yl)-xanthen-9-ylidene]-8-aza-bicyclo[3.2.1]octane], the pKi on delta opioid receptor (DOR Ki) is 7.27; at mu opioid receptor (MOR Ki), 5.76.

Regarding `COC(=O)c1ccc2c(c1)Oc1cc(C(=O)OC)ccc1C2=C1CC2CCC(C1)N2` [Cpd 78, 9-(8-Aza-bicyclo[3.2.1]oct-3-ylidene)-9H-xanthene-3,6-dicarboxylic acid dimethyl ester], the pKi was 5.94 on delta opioid receptor (DOR Ki) and 5.15 on mu opioid receptor (MOR Ki).

In the case of `CN1C2CCC1CC(=C1c3ccccc3Sc3cc(-c4cccnc4)ccc31)C2` [Cpd 114], the pKi is 6.97 on delta opioid receptor (DOR Ki) and 6.96 on mu opioid receptor (MOR Ki).

In the case of `CN(C)CCN(C)C(=O)c1ccc2c(c1)Oc1ccccc1C2=C1CC2CCC(C1)N2` [Cpd 56], the pKi at delta opioid receptor (DOR Ki) was 5.31; at mu opioid receptor (MOR Ki), 4.55.

As to `c1ccc2c(c1)Sc1cc(-c3nnn[nH]3)ccc1C2=C1C[C@H]2CC[C@@H](C1)N2` (single isomer, unassigned) [Cpd 102, (1RS,5SR)-3-[3-(1H-Tetrazol-5-yl)-thioxanthen-9-ylidene]-8-aza-bicyclo[3.2.1]octane], the pKi is 7.27 on delta opioid receptor (DOR Ki) and 5.56 on mu opioid receptor (MOR Ki).

Regarding `O=C(NCC(F)(F)F)c1ccc2c(c1)Oc1ccccc1C2=C1CC2CCC(C1)N2` [Cpd 64], the pKi at delta opioid receptor (DOR Ki) is 7.28; at mu opioid receptor (MOR Ki), 6.39.

Turning to `COC(=O)c1ccc2c(c1)Sc1ccccc1C2=C1CC2CCC(C1)N2` [Cpd 76], the values for the pKi on delta opioid receptor (read-out: DOR Ki) and at mu opioid receptor (read-out: MOR Ki) were 6.43 and 5.32, respectively.

`O=C(N1C2CCC1CC(=C1c3ccccc3Oc3cc(-c4cccnc4)ccc31)C2)C(F)(F)F` [Cpd 128]: the pKi at delta opioid receptor (read-out: DOR Ki) and at mu opioid receptor (read-out: MOR Ki) was < 5.00 throughout.

Consider `CC(=O)Nc1ccccc1-c1ccc2c(c1)Oc1ccccc1C2=C1CC2CCC(C1)N2C(=O)C(F)(F)F` [Cpd 131], for which the pKi at delta opioid receptor (read-out: DOR Ki) and on mu opioid receptor (read-out: MOR Ki) was < 5.00 each time.

`Oc1cccc(-c2ccc3c(c2)Oc2ccccc2C3=C2CC3CCC(C2)N3)c1` [Cpd 38]: the pKi at delta opioid receptor (DOR Ki) was 6.38; on mu opioid receptor (MOR Ki) it was 6.15.

Consider `N=C(c1ccc2c(c1)Oc1ccccc1C2=C1CC2CCC(C1)N2)N1CCOCC1` [Cpd 50], for which the pKi on delta opioid receptor (DOR Ki) was 5.76; on mu opioid receptor (MOR Ki), 4.83.

Turning to `CS(=O)(=O)Nc1cccc(-c2ccc3c(c2)Oc2ccccc2C3=C2CC3CCC(C2)N3)c1` [Cpd 63], the pKi at delta opioid receptor (DOR Ki) is 6.79; at mu opioid receptor (MOR Ki) it was 5.29.

Turning to `O=C(Nc1ccccc1)c1ccc2c(c1)Oc1ccccc1C2=C1CC2CCC(C1)N2` [Cpd 47], the pKi on delta opioid receptor (DOR Ki) was 6.09; at mu opioid receptor (MOR Ki), 5.92.

With `O=C(O)c1ccc2c(c1)Oc1ccccc1C2=C1CC2CCC(C1)N2` [Cpd 72], the pKi was 6.67 on delta opioid receptor (read-out: DOR Ki) and 5.71 on mu opioid receptor (read-out: MOR Ki).

As to `c1ccc(CN2C3CCC2CC(=C2c4ccccc4Sc4cc(-c5cccnc5)ccc42)C3)nc1` [Cpd 117], the pKi is 7.02 at delta opioid receptor (DOR Ki) and 7.01 at mu opioid receptor (MOR Ki).

In the case of `c1ccc(Sc2ccc3c(c2)Sc2ccccc2C3=C2CC3CCC(C2)N3)cc1` [Cpd 83, 3-(3-Phenylsulfanyl-thioxanthen-9-ylidene)-8-aza-bicyclo[3.2.1]octane], the pKi is 5.07 at delta opioid receptor (DOR Ki) and < 5.00 on mu opioid receptor (MOR Ki).

With `O=C(NC1CCC(c2ccccc2)CC1)c1ccc2c(c1)Oc1ccccc1C2=C1CC2CCC(C1)N2` (centres unmarked) [Cpd 34], the pKi on delta opioid receptor (read-out: DOR Ki) is 6.61; at mu opioid receptor (read-out: MOR Ki), 5.21.

In the case of `CC(=O)Nc1ccccc1-c1ccc2c(c1)Sc1ccccc1C2=C1CC2CCC(C1)N2Cc1ccoc1` [Cpd 120], the values for the pKi on delta opioid receptor (DOR Ki) and at mu opioid receptor (read-out: MOR Ki) were 7.27 and 6.74, respectively.

On to `COc1cccc2c1Oc1cc(-c3ccsc3)ccc1C2=C1CC2CCC(C1)N2` [Cpd 106], for which the pKi was 6.55 on delta opioid receptor (read-out: DOR Ki) and 5.56 on mu opioid receptor (read-out: MOR Ki).

In the case of `Cc1nnc(-c2ccc3c(c2)Oc2ccccc2C3=C2CC3CCC(C2)N3)[nH]1` [Cpd 35, 3-[3-(5-Methyl-4H-[1,2,4]triazol-3-yl)-xanthen-9-ylidene]-8-aza-bicyclo[3.2.1]octane], the pKi at delta opioid receptor (DOR Ki) is 6.58; on mu opioid receptor (MOR Ki), 6.17.

As for `CC(C)(CO)NC(=O)c1ccc2c(c1)Oc1ccccc1C2=C1CC2CCC(C1)N2` [Cpd 97], the negative-log Ki (pKi) on delta opioid receptor (read-out: DOR Ki) was 6.58; on mu opioid receptor (read-out: MOR Ki), 5.72.

On to `CC(=O)Nc1cccc(-c2ccc3c(c2)Oc2ccccc2C3=C2CC3CCC(C2)N3)c1` [Cpd 20], for which the pKi was 7.33 on delta opioid receptor (DOR Ki) and 5.55 on mu opioid receptor (MOR Ki).

For `CC(=O)Nc1ccccc1-c1ccc2c(c1)Oc1ccccc1C2=C1CC2CCC(C1)N2C(=O)C(F)(F)F` [Cpd 130], the pKi at delta opioid receptor (read-out: DOR Ki) and on mu opioid receptor (read-out: MOR Ki) was < 5.00 in each case.

For the molecule `COc1cccc2c1Oc1cc(-c3ccncc3)ccc1C2=C1CC2CCC(C1)N2` [Cpd 107], the values for the pKi on delta opioid receptor (read-out: DOR Ki) and at mu opioid receptor (read-out: MOR Ki) were 6.97 and 6.22, respectively.
